Results taken from patent US8735389B2, “Treating psychological conditions using muscarinic receptor M1 antagonists” (priority 2006, dated 2014).

What was measured:
cortical receptors = settings: cited from earlier work
cardiac receptors = settings: cited from earlier work
muscarinic receptor = settings: cited from earlier work
male CD-1 mice = test: tail suspension test (immobility time); type: in vivo
Excerpt: Antidepressant Effects: The tail suspension methodology was used to assess compounds for their antidepressant effects. The methodology was adapted from the original description by Stem et al. (Stem L, et al., Psychopharmacol 85:367-70, 1985; Stem L, et al., Prog Neuro-Psychopharmacol & Biol Psychiat 11:659-71, 1987) and later modifications by Crowley et al. (Crowley J J, et al., Pharmacol Biochem Beh 78(2):269-74, 2004). Seven- to eight-week-old (25-35 grams) male, CD-1 mice were housed for one week prior to testing. Mice (n=8-10 per dose group) were dosed intraperitoneally (ip) or orally (po) with the compound under investigation, and returned to their home cage for the appropriate pretreatment interval (45-60 min). Using tape, the mice were then suspended by the tail from a strain gauge. Activity over the next 6 minutes was scored by computer as either: 1) Immobility, 2) Escape Behavior or 3) Major Escape Behavior, based on the intensity of movements registered by the strain gauge. Total Immobility was calculated and expressed in seconds. […] Treatment effects are presented in Table 1 and FIGS. 1-6 as both raw Time Spent Immobile (in seconds±SEM [standard error of the mean]) and as % Reduction in Immobility=[1−(Treatment Immobility/Vehicle Immobility)]×100%. Similar superscripts in the Dose column of Table 1 denote values derived from the same experiment (to facilitate comparisons between individual treatments and co-administrations). Statistical analyses were performed using a 1-way ANOVA (analysis of variance) followed by a Bonferroni multiple comparison test with the overall alpha set at 0.05. In Table 1, asterisks (*) denote significant effects compared to vehicle-treated mice, while letters (a or b) denote significant effects compared to mice treated with a single compound (“a” for significance from antidepressant and “b” for significance from telenzepine). In Table 1, the symbol denotes p<0.05, two symbols denote p<0.01 and three symbols denote p<0.001). The symbols used for denoting statistical significance may be different in the corresponding figures.

[1] = system: dopamine efflux in the striatum; settings: local microinjection; cited from earlier work
mice and rats = settings: administered systemically; cited from earlier work
GABA efflux = settings: directly injected into the midbrain; cited from earlier work
[2] = at 90 degrees; cited from earlier work

**Q.** Which results are given for `Cc1scc2c1N(C(=O)CN1CCN(C)CC1)c1ccccc1NC2=O` [(+) form of telenzepine]?
**A.** factor by which the (+) form is more effective than the (−) isomer (cortical receptors): 400; factor by which the (+) form is more potent than the (−) form (cardiac receptors): 50; antimuscarinic activity (muscarinic receptor): potent antimuscarinic activity

**Q.** For `Cc1scc2c1N(C(=O)CN1CCN(C)CC1)c1ccccc1NC2=O` [(−) form], which antimuscarinic activity (muscarinic receptor) is on record?
**A.** The antimuscarinic activity was “considerably less active”.

**Q.** Which results are given for `CNCCC(Oc1ccc(C(F)(F)F)cc1)c1ccccc1` (stereo not shown) [Fluoxetine, fluoxetine]?
**A.** Reduction in Immobility (male CD-1 mice; 4 mg/kg ip, experiment c): 0%; Treatment Immobility Time (male CD-1 mice; 4 mg/kg ip, experiment c): 97 ± 11 s; Reduction in Immobility (male CD-1 mice; 4 mg/kg ip, experiment g): 45%; Treatment Immobility Time (male CD-1 mice; 4 mg/kg ip, experiment g): 81 ± 16 s; Reduction in Immobility (male CD-1 mice; 20 mg/kg ip, experiment g): 45%; Treatment Immobility Time (male CD-1 mice; 20 mg/kg ip, experiment g): 82 ± 16 s; Reduction in Immobility (male CD-1 mice; 40 mg/kg ip, experiment g): 64%; Treatment Immobility Time (male CD-1 mice; 40 mg/kg ip, experiment g): 53 ± 14 s; lowering of the effective antidepressant dose (estimated) (male CD-1 mice; to 4 mg/kg by co-administering 10 mg/kg TZP): approximately 7 fold

**Q.** With `CN1CCN(CC(=O)N2c3ccccc3C(=O)Nc3cccnc32)CC1` [Pirenzepine, 5,11-Dihydro-11-[(4-methyl-1-piperazinyl)acetyl]-6H-pyrido[2,3-b][1,4]benzodiazepin-6-one] as the compound, how does the “dopamine efflux in the striatum” value [1] read?
**A.** The value was “decreased dopamine efflux in the striatum”.

**Q.** What about the “Reduction in Immobility” value (male CD-1 mice; 5 mg/kg ip, experiment f) of the same compound?
**A.** The value was −11%.

**Q.** What about the “Treatment Immobility Time” value (male CD-1 mice; 5 mg/kg ip, experiment f) of the same compound?
**A.** The value was 137 ± 15 s.

**Q.** And the “Reduction in Immobility” value (male CD-1 mice; 25 mg/kg ip, experiment f)?
**A.** The value was 27%.

**Q.** And the “Treatment Immobility Time” value (male CD-1 mice; 25 mg/kg ip, experiment f)?
**A.** Its value is 90 ± 17 s.

**Q.** What about the “Reduction in Immobility” value (male CD-1 mice; 50 mg/kg ip, experiment f) of the same compound?
**A.** The value was 38%.

**Q.** What about the “Treatment Immobility Time” value (male CD-1 mice; 50 mg/kg ip, experiment f) of the same compound?
**A.** The value was 76 ± 12 s.

**Q.** What about the “effect on immobility (in words)” value (male CD-1 mice; alone at 50 mg/kg ip (FIG. 1)) of the same compound?
**A.** Its value is “significant reduction in immobility”.

**Q.** What about the behavioral effects (mice and rats) of the same compound?
**A.** Its behavioral effects is “failed to elicit any behavioral effects”.

**Q.** With `CN[C@H]1CC[C@@H](c2ccc(Cl)c(Cl)c2)c2ccccc21` [Sertraline, sertraline] as the compound, how does the “Reduction in Immobility” value (male CD-1 mice; 1 mg/kg ip, experiment a) read?
**A.** Its value is 24%.

**Q.** What about the “Treatment Immobility Time” value (male CD-1 mice; 1 mg/kg ip, experiment a) of the same compound?
**A.** Its value is 87 ± 14 s.

**Q.** And the “Reduction in Immobility” value (male CD-1 mice; 5 mg/kg ip, experiment h)?
**A.** Its value is 48%.

**Q.** What about the “Treatment Immobility Time” value (male CD-1 mice; 5 mg/kg ip, experiment h) of the same compound?
**A.** Its value is 63 ± 08 s.

**Q.** And the “Reduction in Immobility” value (male CD-1 mice; 5 mg/kg ip, experiment h, listed as sertraline)?
**A.** The value was 48%.

**Q.** What about the “Reduction in Immobility” value (male CD-1 mice; 20 mg/kg ip, experiment h) of the same compound?
**A.** The value was 59%.

**Q.** And the “Treatment Immobility Time” value (male CD-1 mice; 20 mg/kg ip, experiment h)?
**A.** The value was 50 ± 16 s.

**Q.** What about the “Reduction in Immobility” value (male CD-1 mice; 40 mg/kg ip, experiment h) of the same compound?
**A.** Its value is 64%.

**Q.** And the “Treatment Immobility Time” value (male CD-1 mice; 40 mg/kg ip, experiment h)?
**A.** The value was 44 ± 15 s.

**Q.** And the “lowering of the effective antidepressant dose” value (male CD-1 mice; to 1 mg/kg by co-administering 5 mg/kg TZP)?
**A.** The value was 5 fold.

**Q.** For `Cc1scc2c1N(C(=O)CN1CCN(C)CC1)c1ccccc1NC2=O` [Telenzepine, 4,9-Dihydro-3-methyl-4-[(4-methyl-1-piperazinyl)acetyl]-10H-thieno[3,4-b][1,5]benzodiazepin-10-one], which “Reduction in Immobility” value (male CD-1 mice; 5 mg/kg ip, experiment a) is on record?
**A.** Its value is 30%.

**Q.** And the “Treatment Immobility Time” value (male CD-1 mice; 5 mg/kg ip, experiment a)?
**A.** Its value is 80 ± 14 s.

**Q.** And the “Reduction in Immobility” value (male CD-1 mice; 5 mg/kg ip, experiment b)?
**A.** Its value is 21%.

**Q.** What about the “Treatment Immobility Time” value (male CD-1 mice; 5 mg/kg ip, experiment b) of the same compound?
**A.** Its value is 90 ± 18 s.

**Q.** What about the “Reduction in Immobility” value (male CD-1 mice; 5 mg/kg ip, experiment d) of the same compound?
**A.** Its value is −27%.

**Q.** And the “Treatment Immobility Time” value (male CD-1 mice; 5 mg/kg ip, experiment d)?
**A.** Its value is 159 ± 23 s.

**Q.** What about the “Reduction in Immobility” value (male CD-1 mice; 10 mg/kg ip, experiment c) of the same compound?
**A.** Its value is 34%.

**Q.** And the “Treatment Immobility Time” value (male CD-1 mice; 10 mg/kg ip, experiment c)?
**A.** The value was 64 ± 15 s.

**Q.** And the “Reduction in Immobility” value (male CD-1 mice; 25 mg/kg ip, experiment d)?
**A.** Its value is 33%.

**Q.** What about the “Treatment Immobility Time” value (male CD-1 mice; 25 mg/kg ip, experiment d) of the same compound?
**A.** Its value is 84 ± 07 s.

**Q.** And the “Reduction in Immobility” value (male CD-1 mice; 50 mg/kg ip, experiment d)?
**A.** The value was 51%.

**Q.** What about the “Treatment Immobility Time” value (male CD-1 mice; 50 mg/kg ip, experiment d) of the same compound?
**A.** The value was 61 ± 11 s.

**Q.** And the “Reduction in Immobility” value (male CD-1 mice; 60 mg/kg po, experiment e)?
**A.** The value was 45%.

**Q.** What about the “Treatment Immobility Time” value (male CD-1 mice; 60 mg/kg po, experiment e) of the same compound?
**A.** The value was 71 ± 15 s.

**Q.** And the “Reduction in Immobility” value (male CD-1 mice; 80 mg/kg po, experiment e)?
**A.** Its value is 37%.

**Q.** And the “Treatment Immobility Time” value (male CD-1 mice; 80 mg/kg po, experiment e)?
**A.** Its value is 82 ± 18 s.

**Q.** And the “Reduction in Immobility” value (male CD-1 mice; 100 mg/kg po, experiment e)?
**A.** The value was 55%.

**Q.** What about the “Treatment Immobility Time” value (male CD-1 mice; 100 mg/kg po, experiment e) of the same compound?
**A.** The value was 59 ± 10 s.

**Q.** What about the “effect on immobility (in words)” value (male CD-1 mice; alone at 25 mg/kg ip (FIG. 2)) of the same compound?
**A.** Its value is “significant reduction in immobility”.

**Q.** What about the “effect on immobility (in words)” value (male CD-1 mice; alone at 60 mg/kg po (FIG. 3)) of the same compound?
**A.** Its value is “significant reduction in immobility”.

**Q.** And the GABA efflux (GABA efflux)?
**A.** Its GABA efflux is “reduced GABA efflux”.

**Q.** And the “half time of interconversion of the two forms” value [2]?
**A.** The value was “approximately 200 hours”.

**Q.** Which results are given for `COc1ccc(C(CN(C)C)C2(O)CCCCC2)cc1` (stereo not shown) [Venlafaxine, venlafaxine]?
**A.** Reduction in Immobility (male CD-1 mice; 3 mg/kg ip, experiment i): 8%; Treatment Immobility Time (male CD-1 mice; 3 mg/kg ip, experiment i): 103 ± 21 s; Reduction in Immobility (male CD-1 mice; 10 mg/kg ip, experiment b): 10%; Treatment Immobility Time (male CD-1 mice; 10 mg/kg ip, experiment b): 103 ± 15 s; Reduction in Immobility (male CD-1 mice; 10 mg/kg ip, experiment i): −4%; Treatment Immobility Time (male CD-1 mice; 10 mg/kg ip, experiment i): 116 ± 20 s; Reduction in Immobility (male CD-1 mice; 30 mg/kg ip, experiment i): 72%; Treatment Immobility Time (male CD-1 mice; 30 mg/kg ip, experiment i): 31 ± 09 s; Reduction in Immobility (male CD-1 mice; 30 mg/kg ip, experiment i, listed as venlafaxine): 72%; lowering of the effective antidepressant dose (male CD-1 mice; to 10 mg/kg by co-administering 5 mg/kg telenzepine): 3 fold
